Where two headings read alike, the source gives them in different places.
Experiments:
[1] = system: human epidermoid carcinoma, A431; assay: In vivo tumor inhibition assay, A431 tumor fragments s.c. in nude mice; conditions: for Tumor Growth Delay / Tumor Growth Inhibition: 15 consecutive days; for Tumor Growth Delay: isethionate salt in water, T-C to 750 mg; for Tumor Growth Inhibition: growth delay divided by number of treatments times 100%
Method: The human epidermoid carcinoma, A431, was propagated in vivo by serial transplantation. This tumor model was selected for these studies because of its known dependence upon the EGF receptor for growth and its early stage responsiveness to monoclonal antibody therapy in vivo. In this experiment nude mice weighing 18-22 grams were implanted subcutaneously with 30 mg A431 tumor fragments in the region of the right axilla on Day 0. Tumors were allowed to grow to a mass of 100 to 150 mg, at which time the tumor bearing animals were randomized and distributed into treatment cages. […] The isethionate salts can be prepared by titrating the compounds into solution with 2 equivalents of isethionic acid. Treatment was based on average group weight. The control animals received water. Evaluation of the experiment was based on tumor growth delay, T-C, defined as the difference, in days, for the treated and control tumors to reach an evaluation size of 750 mg. Data can also be represented as the percentage of tumor growth inhibition, defined as the tumor growth delay divided by the number of treatments times 100%. […] Statistical analysis was performed using JMP for Macintosh (SAS Institute, Inc., Cary, N.C. ).

[2] = system: VEGF secretion from A431 cells; conditions: for VEGF secretion: 48 hours
[3] = system: heregulin-mediated tyrosine phosphorylation in MDA-MB-453 cells; assay: Heregulin-dependent tyrosine phosphorylation assay, MDA-MB-453 cells, western blot; assay type: cell-based; conditions: Homo sapiens, 2 hours compound, 10 ng/mL heregulin 5 minutes, read-out: Heregulin-Medidated Tyrosine Phosphorylation IC50
Method: Proteins in the lysate were separated by polyacrylamide gel electrophoresis and electrophoretically transferred to nitrocellulose. […] Band intensities were determined with a laser densitometer.

C=CC(=O)Nc1cc2c(Nc3ccc(F)c(Cl)c3)ncnc2cc1OCCCN1CCOCC1 [compound 1, N-[4-(3-chloro-4-fluoro-phenylamino)-7-(3-morpholin-4-yl-propoxy)-quinazolin-6-yl]-acrylamide]
Tumor Growth Delay ([1]; 5 mg/kg perorally): 53.2 days
Tumor Growth Inhibition ([1]; 5 mg/kg perorally): 355%
Tumor Growth Delay ([1]; 18 mg/kg perorally): 41.3 days
Tumor Growth Inhibition ([1]; 18 mg/kg perorally): 275%
antitumor response T-C ([1]; A431 tumors in vivo, dose not given): 53 days
VEGF secretion ([2]; 10 ng/mL EGF stimulated, 0.1 μM compound): 1490 ± 170 pg/10^5 cells ± SE
VEGF secretion ([2]; 10 ng/mL EGF stimulated, 0.5 μM compound): 560 ± 29 pg/10^5 cells ± SE
effect on EGF- or TGF-alpha stimulated VEGF secretion ([2]; 0.5 μM, in words): blocked
VEGF secretion ([2]; TGF-alpha stimulated, 0.1 μM compound): 1976 ± 37 pg/10^5 cells ± SE
VEGF secretion ([2]; TGF-alpha stimulated, 0.5 μM compound): 766 ± 75 pg/10^5 cells ± SE
effect on the basal level of VEGF secretion from A431 cells ([2]; basal, in words): appeared to inhibit
VEGF secretion ([2]; serum free media (basal), 0.1 μM compound): 280 ± 41 pg/10^5 cells ± SE
VEGF secretion ([2]; serum free media (basal), 0.5 μM compound): 250 ± 46 pg/10^5 cells ± SE
IC50 [3]: 9 nM

Reference: patent publication US6344455B1 (Warner-Lambert Company, priority 1998, dated 2002)
